The values that follow come from paper PMC3726061 (Journal of pharmaceutical and biomedical analysis, 2012).

Structures are written as SMILES. Counter-ions that a name gives are not always drawn. Like-named read-outs stand apart in the source and are kept apart here.

The target of test [1] is T1, σ2 receptors (Rattus norvegicus, UniProt Q5U3Y7).
T1 sequence (Q5U3Y7 1-176): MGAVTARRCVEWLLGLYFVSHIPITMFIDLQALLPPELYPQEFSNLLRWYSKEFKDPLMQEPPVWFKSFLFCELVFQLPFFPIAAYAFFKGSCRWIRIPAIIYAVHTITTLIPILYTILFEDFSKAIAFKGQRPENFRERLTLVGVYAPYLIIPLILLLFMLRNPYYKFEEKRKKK
Briefly: σ2 competition binding, [3H]DTG with.

Test [2] has as its target T2, σ1 receptors (Rattus norvegicus, UniProt Q9R0C9). Description: σ1 competition binding, [3H].
Test [3] deals with T1, σ2 receptors. Description: σ2 competition binding, [3H]DTG with. This is another data set of the same source.
In test [4] the target is T2, σ1 receptors. Briefly: biochemical.
Test [5] addresses σ1. Particulars: read-out: Ki at σ1 (nM) Literature, footnote not given, cited from earlier work.
For test [6], the target named is σ1. Conditions: cited from earlier work.
Test [7] deals with σ1. Conditions: read-out: Ki at σ1 (nM) Literature, cited from earlier work.
For test [8], the target named is σ2. Particulars: read-out: Ki at σ2 (nM) Literature, cited from earlier work.
Test [9] addresses T2, σ1 receptors. Conditions: read-out: Ki at σ1 (nM) Experimental Brain/Brandel; rat brain P2, 5 nM [3H](+)-pentazocine, cell harvester.
The target of test [10] is σ2. Conditions: read-out: Ki at σ2 (nM) Literature, footnote not given, cited from earlier work.
Test [11] concerns σ2. Conditions: read-out: Ki at σ2 (nM) Literature (reported value is IC50); Guinea-pig brain; ref Chaki, 1994; cited from earlier work.
Where [12] appears, read: read-out: Ki at σ2 (nM) Experimental Brain/Brandel, rat brain P2, 3 nM [3H]DTG with 300 nM (+)-pentazocine, cell harvester.
Setting [13] is: Rat brain P2 with 5 nM [3H](+)-pentazocine, ref Bowen, 1993.
The mark [14] stands for this setting: Rat brain P2, 3 nM [3H]DTG with 1 μM dextrallorphan, ref Bowen, 1993.

Usually IC50 stands for the concentration that gives 50% inhibition.

T2 sequence (Q9R0C9 whole entry): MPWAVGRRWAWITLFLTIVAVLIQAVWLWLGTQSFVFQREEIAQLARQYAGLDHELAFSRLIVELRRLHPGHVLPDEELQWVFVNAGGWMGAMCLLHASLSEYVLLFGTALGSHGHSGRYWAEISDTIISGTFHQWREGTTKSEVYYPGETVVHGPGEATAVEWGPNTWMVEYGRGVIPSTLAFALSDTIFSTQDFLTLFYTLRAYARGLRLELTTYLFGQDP

`CC(=O)[C@H]1CC[C@H]2[C@@H]3CCC4=CC(=O)CC[C@]4(C)[C@H]3CC[C@]12C` [progesterone]: the Ki at σ2 receptors [1] was greater than 10000 nM; at σ1 receptors [2] it was 99.7 ± 3.1 nM; on σ2 receptors [3] it was greater than 10000 nM; on σ1 receptors [4] it was 234 ± 4.4 nM; on σ1 [5] (ref f), 338 ± 8 nM.
As for `CN1CCN(CCc2ccc(Cl)c(Cl)c2)CC1` [BD1063, 1-[2-(3,4-dichlorophenyl)ethyl]-4-methylpiperazine dihydrochloride], the Ki on σ1 receptors [2] is 33.4 ± 4.1 nM; at σ1 receptors [4], 15 ± 2.1 nM; at σ1 [6] (read-out: Ki at σ1 (nM) Literature, Guinea-pig brain P2 with 3 nM [3H](+)-pentazocine, ref Matsumoto, 1995), 9.15 ± 1.28 nM.
For `CC(C)=CCN1CCC2(C)c3cc(O)ccc3CC1C2C` (single isomer, unassigned; (-)) [(−)-pentazocine], the Ki at σ2 receptors [1] (setting [12]) is 108 ± 4.4 nM; at σ1 [7] (setting [13]), […]; on σ2 [8] (setting [14]), 108 ± 6 nM.
For `c1ccc(CCN2CCCCC2)cc1` [AC927, N-phenethylpiperidine oxalate], the Ki at σ2 receptors [1] (setting [12]) is 384 ± 34 nM; at σ1 [7] (Rat brain P2 with 3 nM [3H](+)-pentazocine, ref Matsumoto, 2008) it was 30 ± 2 nM; at σ2 [8] (Rat brain P2, 3 nM [3H]DTG with 300 nM (+)-pentazocine, ref Matsumoto, 2008) it was 138 ± 18 nM; on σ1 receptors [9], 61.2 ± 5.6 nM.
Turning to `COc1ccc2c(c1)[C@]13CCCC[C@@H]1[C@H](C2)N(C)CC3` [dextromethorphan, dextromethorphan hydrobromide], the Ki is greater than 10000 nM at σ2 receptors [1]; 214 ± 15 nM at σ1 receptors [2]; greater than 10000 nM on σ2 receptors [3]; 403 ± 22 nM at σ1 receptors [4]; 652 ± 33 nM on σ1 [5] (ref g).
As for `CCCc1ccc2c(c1)sc(=O)n2CCN1CCCCCC1` [SN56, 3-(2-(azepan-l-yl)ethyl)-6-propylbenzo[d]thiazol-2(3H)-one], the Ki at σ2 [10] (ref h) is greater than 1000 nM; on σ2 receptors [1] (setting [12]), 627 ± 115 nM; at σ1 receptors [2] (read-out: Ki (nM) σ1, Table 2, 96-well filtration method, rat liver P2, 5 nM [3H](+)-pentazocine) it was 1.6 ± 0.1 nM; on σ1 receptors [9] it was 1.7 ± 0.1 nM; on σ1 [5] (ref h), 0.56 nM. Also, on σ1 receptors [2] (selectivity ratio for σ1 versus σ2, 96-well method), the “Ki σ2/Ki σ1” value is on record as 168.
Regarding `C[C@@H]1CN(CCCn2c3ccccc3c3ccccc32)C[C@H](C)N1` [rimcazole, rimcazole dihydrochloride monohydrate], the Ki on σ2 receptors [1] was 1570 ± 154 nM; on σ2 receptors [3] it was 719 ± 72 nM; at σ1 [5] (ref g), 867 ± 185 nM.
Regarding `C=CCN1CCC2(C)c3cc(O)ccc3CC1C2C` (single isomer, unassigned; (+)) [(+)-SKF10, 047, (+)-N-allylnormetazocine hydrochloride], the Ki on σ1 [7] (setting [13]) was 28.7 ± 2.8 nM; at σ2 [8] (setting [14]) it was 33700 nM; on σ1 receptors [9] it was 287 ± 36 nM.
For the molecule `COCCCC/C(=N\OCCN)c1ccc(C(F)(F)F)cc1` [fluvoxamine, fluvoxamine maleate], the Ki on σ2 [10] (ref e) was 8440 nM; at σ1 [5] (ref e), 36 nM.
With `CC(C)=CCN1CC[C@]2(C)c3cc(O)ccc3C[C@H]1[C@H]2C` [(+)-pentazocine, (+)-Pentazocine], the Ki on σ2 receptors [1] is 1410 ± 207 nM; at σ1 [7] (setting [13]), […]; at σ2 [8] (setting [14]), 1360 ± 134 nM; at σ2 receptors [3] it was 1070 ± 94 nM.
As for `CCCN(CCC)CCc1ccc(OC)c(OCCc2ccccc2)c1` [NE100, 4-methoxy-3-(2-phenylethoxy)-N,N-dipropylbenzeneethanamine hydrochloride], the Ki at σ2 receptors [1] stood at 95.5 ± 1 nM; at σ1 receptors [2], 2 ± 0.5 nM; at σ2 receptors [3] it was 36.2 ± 1.1 nM; on σ1 receptors [4] it was 2.8 ± 0.5 nM. Besides, the half-maximal inhibitory concentration (IC50) is 84.6 ± 32.9 nM in the test on σ2 [11] and 1.54 ± 0.26 nM in the test on σ1 [6] (read-out: Ki at σ1 (nM) Literature (reported value is IC50), Guinea-pig brain, ref Chaki, 1994).
